Experimental data reported in patent publication US10981932B2, “Macrocyclic indole derivatives” (Bayer Aktiengesellschaft, priority 2016, dated 2021).
“And” between values parts separate entries of the source, which are not always exact repeats. Equal values may be shown once. Where a name gives a salt, the structure may show the parent alone. Read-outs that look alike come from different tables or passages of the source.

How the values were obtained:
SUDHL5 [1] = experiment: Induction of cytotoxicity (CellTiter-Glo, 5 h), SUDHL5
SUDHL5 [2] = experiment: Induction of caspase-3/7 activity (Caspase-Glo 3/7), SUDHL5; format: cell-based; conditions: caspase-3/7 induction, SUDHL5 cells, 3 h treatment, median
Method in brief: (§1)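 Caspase-Glo 3/7 luminescence, 3 h compound exposure, 37 °C, humidified. Minus medium-only blank. EC50 fit: C0=1, plateau = reference max induction.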

SUDHL10 [3] = experiment: Anti-proliferative effect (CellTiter-Glo, 72 h), SUDHL10; format: cell-based; conditions: SUDHL10 cells, antiproliferation, 72 h incubation, median, read-out: Antiproli SUDHL10 [M] (median)
Method in brief: (§2)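 CTG luminescence read-out after 72 h compound exposure, 37 °C, humidified. Time-zero reference plate read at plating.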

SUDHL10 [4] = experiment: Induction of cytotoxicity (CellTiter-Glo, 5 h), SUDHL10
MCL-1 = MCL-1 (Homo sapiens, UniProt Q07820); experiment: Protein-protein interaction assay MCL-1/Noxa BH3 peptide (MCL-1 assay), TR-FRET; format: binding; conditions: MBP-MCL-1 / Noxa BH3-derived peptide, median
Sequence of MCL-1 (Q07820 whole entry): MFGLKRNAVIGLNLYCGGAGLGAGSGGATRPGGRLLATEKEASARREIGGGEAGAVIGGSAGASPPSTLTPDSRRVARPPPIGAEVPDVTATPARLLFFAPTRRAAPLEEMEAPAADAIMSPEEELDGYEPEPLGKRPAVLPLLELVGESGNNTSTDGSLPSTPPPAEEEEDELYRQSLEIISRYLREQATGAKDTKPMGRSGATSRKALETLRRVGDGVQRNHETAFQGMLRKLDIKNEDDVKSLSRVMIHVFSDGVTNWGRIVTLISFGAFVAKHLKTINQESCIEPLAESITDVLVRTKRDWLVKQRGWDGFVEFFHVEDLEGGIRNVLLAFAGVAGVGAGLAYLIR
Method in brief: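 Displacement of the biotinylated Noxa BH3 peptide from MBP-tagged human MCL-1 (1 nM) is detected by time-resolved FRET. Compounds are tested in duplicate across eleven concentrations up to 20 μM, incubated 1 h at 22 °C and overnight at 4 °C, and IC50 is fitted with a four-parameter equation.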

A2780 = experiment: Anti-proliferative effect (CellTiter-Glo, 72 h), A2780; format: cell-based; conditions: A2780 cells, median, read-out: IC50 antiproliferation assay A2780 [M] (median)
Method in brief: as §2

OPM2 = experiment: Anti-proliferative effect (CellTiter-Glo, 72 h), OPM2; format: cell-based; conditions: OPM2 cells, median, read-out: IC50 antiproliferation assay OPM2 [M] (median)
Description: Assessment of the Anti-Proliferative Effect of Compounds in Different Cell Lines
The impact of compounds on the proliferation of different cell lines was assessed using the CellTiter-Glo® Luminescent Cell Viability reagent from Promega (G7573). Of note, SUDHL10 and SUDHL5 (DLBCL), NCI-H929 (Multiple Myeloma), A2780 (ovarian carcinoma) as well as MV-4-11(AML) cells are sensitive to MCL-1 inhibition.
In parallel, cells were plated in a reference (day 0) plate for time zero determination.
Rim wells were excluded. The cells were incubated for 72 h hours in a humidified incubator at 37° C. The day 0 plate was measured by adding 30 μl/well of CTG solution (CellTiter-Glo® Luminescent Cell Viability reagent, Promega G7573) to time zero wells in the reference plate followed by a 10 minutes incubation and luminescence reading at 0.1 ms, using the PHERAstar FS microplate reader (BMG Labtech).
After 72 h incubation, the treated plates were measured in the same way as the day 0 plate mentioned above.

SUDHL10 [5] = experiment: Induction of caspase-3/7 activity (Caspase-Glo 3/7), SUDHL10; format: cell-based; conditions: caspase-3/7 induction, SUDHL10 cells, 3 h treatment, median
Method in brief: as §1

[6] = Homo sapiens, SU-DHL-5, 5 h, read-out: Cytotox SUDHL5 [M] (median), SUDHL5 cells, cytotoxicity induction, CellTiter-Glo, 5 h incubation, median
[7] = Homo sapiens, SU-DHL10, 5 h, read-out: Cytotox SUDHL10 [M] (median), SUDHL10 cells, cytotoxicity induction, CellTiter-Glo, 5 h incubation, median
[8] = read-out: Cytotox SUDHL5 [M] (median), SUDHL5 cells, cytotoxicity induction, CellTiter-Glo, 5 h incubation, median
[9] = read-out: Cytotox SUDHL10 [M] (median), SUDHL10 cells, cytotoxicity induction, CellTiter-Glo, 5 h incubation, median

| EC50 (SUDHL5 [2]; Homo sapiens, SU-DHL-5, 3 h) | IC50 (SUDHL10 [3]; Homo sapiens, SU-DHL10, 72 h) | IC50 (MCL-1) | IC50 (A2780; Homo sapiens, A2780, 72 h) | EC50 (SUDHL10 [5]; Homo sapiens, SU-DHL10, 3 h) | EC50 (SUDHL5 [2]) | IC50 (SUDHL10 [3]) | IC50 (A2780) | EC50 (SUDHL10 [5]) | SMILES | IC50 (SUDHL5 [1]; [6]) | IC50 (SUDHL10 [4]; [7]) | IC50 (OPM2; Homo sapiens, OPM-2, 72 h) | IC50 (SUDHL5 [1]; [8]) | IC50 (SUDHL10 [4]; [9]) | IC50 (OPM2) |
| --- | --- | --- | --- | --- | --- | --- | --- | --- | --- | --- | --- | --- | --- | --- | --- |
| > 33 µM | 6.96e-06 M | 0.0285 µM | 2.8e-05 M | 29 µM | – | – | – | – | Cn1nc2c(c1CN1CCOCC1)-c1cccc3c(CCCOc4cccc5ccccc45)c(C(=O)O)n(c13)C/C=C\COC2 (racemic) [Example 066, (rac)-(11Z)-2-Methyl-3-(morpholin-4-ylmethyl)-7-[3-(naphthalen-1-yloxy)propyl]-2,10,13,15-tetrahydropyrazolo[4′,3′:9,10][1,6]oxazacycloundecino[8,7,6-hi]indole-8-carboxylic Acid] | > 3.3e-05 M | > 3.3e-05 M | > 3.3e-05 M | – | – | – |
| – | – | 0.116 µM | – | – | > 33 µM | 2.05e-05 M | > 3.3e-05 M | > 33 µM | COCCn1nc2c(c1CN1CCOCC1)-c1cccc3c(CCCOc4cccc5ccccc45)c(C(=O)O)n(c13)CCCN(C)C2 (single isomer, unassigned; enantiomer 2) [Example 058, 10-(2-methoxyethyl)-7-methyl-11-(morpholin-4-ylmethyl)-1-[3-(naphthalen-1-yloxy)propyl]-4,5,6,7,8,10-hexahydropyrazolo[3′,4′:7,8][1,5]diazecino[9,10,1-hi]indole-2-carboxylic Acid (Enantiomer 2)] | – | – | – | > 3.3e-05 M | > 3.3e-05 M | > 3.3e-05 M |
| – | – | 0.0208 µM | – | – | 17.9 µM | 1.49e-05 M | > 3.3e-05 M | > 33 µM | COCc1nn(C)c2c1-c1cccc3c(CCCOc4cccc5ccccc45)c(C(=O)O)n(c13)CCCCOC2 (single isomer, unassigned; enantiomer 2) [Example 160, 3-(methoxymethyl)-1-methyl-7-[3-(naphthalen-1-yloxy)propyl]-1,10,11,12,13,15-hexahydropyrazolo[4′,3′:9,10][1,6]oxazacycloundecino[8,7,6-hi]indole-8-carboxylic acid-N-ethylethanamine Salt (Enantiomer 2)] | – | – | – | 2.05e-05 M | > 3.3e-05 M | > 3.3e-05 M |
| – | – | 0.144 µM | – | – | > 33 µM | 1.53e-05 M | > 3.3e-05 M | > 33 µM | CCOCc1nn(C)c2c1-c1cccc3c(CCCOc4cccc5c4CCCC5)c(C(=O)O)n(c13)CCCCOC2 (single isomer, unassigned; enantiomer 2) [Example 172, 3-(ethoxymethyl)-1-methyl-7-[3-(5,6,7,8-tetrahydronaphthalen-1-yloxy)propyl]-1,10,11,12,13,15-hexahydropyrazolo[4′,3′:9,10][1,6]oxazacycloundecino[8,7,6-hi]indole-8-carboxylic Acid (Enantiomer 2)] | – | – | – | > 3.3e-05 M | > 3.3e-05 M | > 3.3e-05 M |
| > 33 µM | > 3.3e-05 M | 0.633 µM | > 3.3e-05 M | > 33 µM | – | – | – | – | Cc1ccc2cc1-c1cccc3c(CCCOc4cccc5ccccc45)c(C(=O)O)n(c13)CCOCCO2 (racemic) [Example 117, (rac)-13-Methyl-1-[3-(naphthalen-1-yloxy)propyl]-4,5,7,8-tetrahydro-10,14-(metheno)[1,4,7]dioxazacyclotetradecino[9,8,7-hi]indole-2-carboxylic Acid] | > 3.3e-05 M | > 3.3e-05 M | > 3.3e-05 M | – | – | – |
| > 33 µM | 2.2e-05 M | 2.18 µM | 3.25e-05 M | > 33 µM | – | – | – | – | COc1cc2cc(c1)-c1cccc3c(CCCOc4cccc5c4CCCC5)c(C(=O)O)n(c13)CCOCCO2 (racemic) [Example 1-118, (rac)-12-Methoxy-1-[3-(5,6,7,8-tetrahydronaphthalen-1-yloxy)propyl]-4,57,8-tetrahydro-10,14-(metheno)[1,4,7]dioxazacyclotetradecino[9,8,7-hi]indole-2-carboxylic Acid] | > 3.3e-05 M | > 3.3e-05 M | > 3.3e-05 M | – | – | – |
| 12.5 µM | 2.04e-06 M | 0.117 µM | 7.13e-06 M | 25.8 µM | – | – | – | – | CN(C)S(=O)(=O)N1CCN(c2ccc(OCc3nn(C)c4c3-c3cccc5c(CCCOc6cccc7ccccc67)c(C(=O)O)n(c35)CCCN(Cc3ccccc3)C4)cc2)CC1 (racemic) [Example 004, (rac)-(7-benzyl-11-({4-[4dimethylsulfamoyl)piperazin-1-yl]phenoxy}methyl)-9-methyl-1-[3-(1-naphthyloxy)propyl]4,5,6,7,8,9-hexahydropyrazolo[3′,4′:7,8][1,5]diazecino[9,10,1-hi]indole-2-carboxylic Acid] | 1.47e-05 M | 2.57e-05 M | 1.09e-05 M | – | – | – |
| > 33 µM | 2.13e-05 M | 0.0283 µM | 2.55e-05 M | > 33 µM | – | – | – | – | CC(C)OCc1nn(C)c2c1-c1cccc3c(CCCOc4cccc5ccccc45)c(C(=O)O)n(c13)CCCN(C)C2 (single isomer, unassigned) [Example 1-71, 7,9-dimethyl-1-[3-(naphthalen-1-yloxy)propyl]-1-[(propan-2-yloxy)methyl]-4,5,6,7,8,9-hexahydropyrazolo[3′,4′:7,8][1,5]diazecino[9,10,1-hi]indole-2-carboxylic Acid] | – | > 3.3e-05 M | 2.57e-05 M | 1.98e-05 M and > 3.3e-05 M | – | – |
| 11.1 µM | 1.16e-05 M | 0.0135 µM | > 3.3e-05 M | > 33 µM | – | – | – | – | Cn1nc(CN2CCOCC2)c2c1COCCCn1c(C(=O)O)c(CCCOc3cccc4ccccc34)c3cccc-2c31 (racemic) [Example 138, (rac)-9-methyl-11-(morpholin-4-ylmethyl)-1-[3-(naphthalen-1-yloxy)propyl]-5,6,8,9-tetrahydro-4H-pyrazolo[4′,3′:8,9][1,5]oxazecino[7,6,5-hi]indole-2-carboxylic Acid] | 1.13e-05 M | > 3.3e-05 M | > 3.3e-05 M | – | – | – |
| – | – | 0.00106 µM | – | – | 0.723 µM | 1.1e-06 M | 5.32e-06 M | 0.897 µM | CN(C)S(=O)(=O)N1CCN(c2ccc(OCc3nn(C)c4c3-c3cccc5c(CCCOc6cccc7ccccc67)c(C(=O)O)n(c35)CCCCCC4)cc2)CC1 (single isomer, unassigned; enantiomer 2) [Example 1-41, 3-({4-[4-(dimethylsulfamoyl)piperazin-1-yl]phenoxy}methyl)-1-methyl-7-[3-(naphthalen-1-yloxy)propyl]-10,11,12,13,14,15-hexahydro-1H-pyrazolo[4′,3′:4,5]azacycloundecino[3,2,1-hi]indole-8-carboxylic acid-N-ethylethanamine Salt (Enantiomer 2)] | – | – | – | 7.69e-07 M | 1.52e-06 M | 2.17e-06 M |
| > 33 µM | > 3.3e-05 M | 0.066 µM | > 3.3e-05 M | > 33 µM | – | – | – | – | Cc1nn(C)c2c1-c1cccc3c(CCCOc4cccc5c4CCCC5)c(C(=O)O)n(c13)CCCOC2 (racemic) [Example 005, (rac)-9,11-dimethyl-1-[3-(5,6,7,8-tetrahydronaphthalen-1-yloxy)propyl]-5,6,8,9-tetrahydro-4H-pyrazolo[4′,3′:8,9][1,5]oxazecino[7,6,5-hi]indole-2-carboxylic Acid] | > 3.3e-05 M | > 3.3e-05 M | > 3.3e-05 M | – | – | – |
